Measurements from patent US7119077B1, “Multimeric forms of members of the steroid/thyroid superfamily of receptors with the ultraspiracle receptor” (The Salk Institute for Biological Studies, priority 1990, dated 2006).
Entries after “also recorded” stand apart in the source; their conditions may differ.

Key:
[1] = target: T1, EcR/usp (Drosophila melanogaster, UniProt P34021); test: Cotransfection CAT reporter assay with EcR and/or usp expression vectors in CV1 cells; format: cell-based, monkey kidney cells (CV1); conditions: CV1 cells transfected with EcR alone, ΔMTV-EcRE5-CAT reporter, 40 μM
T1 construct: expressed in transfected cells; host or cells: CV1 monkey kidney cells
T1 sequence (P34021 1-878): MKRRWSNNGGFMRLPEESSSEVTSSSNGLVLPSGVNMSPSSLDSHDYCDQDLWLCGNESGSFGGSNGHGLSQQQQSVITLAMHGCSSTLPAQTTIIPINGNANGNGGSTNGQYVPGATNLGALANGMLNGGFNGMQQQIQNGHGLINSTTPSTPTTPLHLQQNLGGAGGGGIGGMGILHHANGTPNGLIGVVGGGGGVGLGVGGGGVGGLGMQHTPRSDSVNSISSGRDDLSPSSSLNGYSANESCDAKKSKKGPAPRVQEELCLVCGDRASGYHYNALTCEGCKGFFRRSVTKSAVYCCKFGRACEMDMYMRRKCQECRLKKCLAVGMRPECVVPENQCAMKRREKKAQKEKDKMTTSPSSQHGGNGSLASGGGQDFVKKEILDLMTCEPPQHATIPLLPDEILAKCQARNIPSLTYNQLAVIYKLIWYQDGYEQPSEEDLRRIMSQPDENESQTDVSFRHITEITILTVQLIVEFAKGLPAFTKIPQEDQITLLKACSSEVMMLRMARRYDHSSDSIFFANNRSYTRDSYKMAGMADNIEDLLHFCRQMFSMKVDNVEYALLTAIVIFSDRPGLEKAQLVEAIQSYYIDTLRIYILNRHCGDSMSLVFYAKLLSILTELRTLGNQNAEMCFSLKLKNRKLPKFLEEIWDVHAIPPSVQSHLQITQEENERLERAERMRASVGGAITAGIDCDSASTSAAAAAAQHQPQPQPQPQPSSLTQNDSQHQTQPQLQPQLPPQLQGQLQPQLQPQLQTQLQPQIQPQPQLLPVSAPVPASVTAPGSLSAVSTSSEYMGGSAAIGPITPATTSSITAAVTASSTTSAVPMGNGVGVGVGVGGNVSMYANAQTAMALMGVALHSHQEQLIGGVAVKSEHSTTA
Description: (§1) Transfection was performed with calcium-phosphate precipitation method as described previously [Umesono et al., Nature 336:262–264 (1989)]. CV1 monkey kidney cells were maintained in Dulbecco's modified Eagle's medium (DMEM) supplemented with 10% calf bovine serum. The cells were transfected for 8–9 hours and then the DNA precipitates were washed away and replaced with fresh medium with 10% charcoal-resin double stripped fetal bovine serum. 20-hydroxy-ecdysone (Sigma; 10 mg/ml in ethanol), or ethanol alone was then given to the cells. 24–28 hours later, the cells were harvested. Beta-galactosidase (βGal) activity was measured and a normalized amount of extract was used for CAT assay (Umesono et al. (1989) supra]. The following amount of plasmid DNA was included in the 10 cm plate transfection: 250 ng each of CMX-EcR and RSV-GEcR; 500 ng of CMX-usp; 5 μg ΔMTV-EcRE5-CTA; 5 μg of βGal internal control plasmid CH111 (a derivative of CH110, Promega). The amount of CMX plasmid was kept constant in each transfection by adding CMX-luciferase. PGEM4 was added to bring the total amount of plasmid DNA to 15 μg per plate.
(§2) Ecdysone response in CV1 cells was determined by using an ecdysone-responsive reporter gene (ΔMTV-EcRE5-CAT), which contains the same core hsp27-EcRE motif tested in DNA binding assay described earlier. The chloramphenicol acetyl transferase (CAT) activity induced by ecdysone was measured in the presence of different combinations of transfected EcR and usp expression vectors. CAT activity is expressed in FIG. 2 as the percentage of conversion which is normalized against the level in EcR alone at the presence of ecdysone assigned as one (column 1, shaded rectangle). The final concentration of 20-hydroxy-ecdysone (Sigma) is 40 μM. […] Cotransfection of EcR and usp together is shown in column 3 and the induction of CAT activity could be observed by about 3 fold.
(§3) To test whether usp can complement the EcR activity as it did in the DNA binding assay, usp expression vector was cotransfected with EcR into CV1 cells. Cotransfection of usp with EcR indeed was able to confer a significant response to 20-OH-ecdysone (over 3 fold, FIG. 2A). […] The level of induction by EcR and usp in CV1 cells is significant but somewhat lower than expected compared with the interaction in DNA binding assay.

[2] = tested on: EcR/usp; test: as above; format: cell-based, monkey kidney cells (CV1); conditions: 40 μM
Description: as §1, §2, §3

With 20-Hydroxyecdysone [20-OH-ecdysone] the “ecdysone responsiveness (CAT activity)” value [1] was “does not respond”, the “ecdysone responsiveness (CAT activity)” value ([1]; listed as 20-hydroxy-ecdysone) was “failed to confer responsiveness” and the “ecdysone responsiveness (CAT activity)” value ([2]; CV1 cells transfected with usp alone, ΔMTV-EcRE5-CAT reporter) was “does not respond; also recorded: did not result in ecdysone responsiveness”. For the same substance, the “ecdysone responsiveness (CAT activity)” value ([2]; CV1 cells, parental ΔMTV-CAT reporter without EcRE) was “did not result in ecdysone responsiveness” and the “ecdysone responsiveness (CAT activity)” value ([2]; CV1 cells, parental ΔMTV-CAT reporter without EcRE, listed as ecdysone) was “does not respond”.
